{
  "source": "patent US8680129B2",
  "about": "“Compounds, composition, methods, targets for cancer therapy” (priority 2008, dated 2014)",
  "type_in_all_cases": "cell-based, human",
  "key": {"[1]": {"system": "UM-SCC-6 cells", "assay": "pUC19 DNA transfection plus chemotherapeutic drug, cell viability", "conditions": "for IC50: Homo sapiens, read-out: IC50 of 5-FU; for IC50 of Cis-Platinum: UM-SCC-6 cells", "protocol": "UM-SCC-6 cells were transfected with pUC19 DNA, pcDNA3, pUC19+pcDNA3, IKK1-KA+pUC19, IKK2-KA+pUC19, and IKK1-KA+IKK2-KA+pUC19, IKK1-KA+pcDNA3, IKK2-KA+pcDNA3, or IKK1-KA+IKK2-KA+pcDNA3, for 48 hours and, treated with variable doses of 5-FU (FIG. 6A) or Cis-Platinum (FIG. 6B) for […] respectively. Cell viabilities were measured in 72 and 96 hours respectively after drug treatment."}, "[2]": {"system": "HT1080 cells", "assay": "pUC19 DNA transfection plus chemotherapeutic drug, cell viability", "conditions": "for IC50 of Cis-Platinum: HT1080 cells", "protocol": "HT1080 Cells were transfected with pUC19 DNA, pcDNA3, pUC19+pcDNA3, IKK1-KA+pUC19, IKK2-KA+pUC19, and IKK1-KA+IKK2-KA+pUC19, IKK1-KA+pcDNA3, IKK2-KA+pcDNA3, or IKK1-KA+IKK2-KA+pcDNA3, for 48 hours before the treatment of chemotherapy drugs at various doses. Cell viability was measured in 72 and 96 hours after drug treatment.\nDrug treatment: Cis-Platinum 30 ng/ml-3 μg/ml (FIG. 6D), Paclitaxel 1 nM-10 μM (FIG. 6C), 5-FU 50 nM-500 μM (data not shown), Doxorubicin 30 nM-3.3 μM (data not shown)."}, "[3]": {"system": "HT1080 cells", "assay": "siRNA or Puc19 transfection combined with Taxel, cell viability by CCK8", "conditions": "72 hours after the treatment", "protocol": "Method: HT1080 cells transfected with siRNAs that were derived from Puc19 DNA sequence and the siRNAs that targeting the corresponding genes that are the targets of the Puc19 derived siRNAs for 24 hours, then, treated with Taxel at 3, 10, 30, and 100 nM for 48 hours. After the 48 hours of Taxel treatment, cells in culture were changed to normal growth medium for 24 to 72 hours. Cell viability was monitored by CCK8 Kit every 24 hours. Data are normalized to % of untreated control cells. The siRNAs that used for this study includes siRNA#1, siRNA#2, siRHA#3, siRNA targeting TRPC6, SH3PXD2B, C6orf108, TTBK1, MAGI3, and TMEM182 as well as combination of siRNA#2+#3, and siRNA#1+#2+#3+#4+#5 (siRNAΣ1-5)."}, "[4]": {"system": "UM-SCC6, HT1080, Cal27, SK-Mel-5, and HEKa cells", "assay": "WST-3 or apigenin alone, cell viability, all tested lines", "conditions": "50 µM WST-3 or 30 μM apigenin alone, 4 hours then 24 hours", "protocol": "(§1) Method: UM-SCC6, HT1080, Cal27, SK-Mel-5, and HEKa cells were treated with 50 or 100 μM WST-3 or 10 or 30 μM apigenin alone, or combination of WST-3 and apigenin at different concentrations for 4 hours with untreated cells as control, then, changed to normal growth medium and remained culture in this medium for another 24 hours. After the 24 hours culture, cell viabilities were measured with CCK8 Kit. Data were normalized to % of untreated control cells."}, "[5]": {"system": "SK-Mel-5 cells", "assay": "WST-3 with apigenin, cell viability by CCK8", "protocol": "as §1"}, "[6]": {"system": "non cancer HEKa cells", "assay": "WST-3 with apigenin, cell viability by CCK8", "protocol": "as §1"}, "[7]": {"conditions": "combination of 30 μM apigenin and WST-3"}},
  "note": "Like-named read-outs stand apart in the source and are kept apart here.",
  "data": [
    {"smiles": "O=c1[nH]cc(F)c(=O)[nH]1", "note": "[5-FU, 5-fluoro-2,4-(1H,3H) pyrimidinedione]", "values": [
      {"measurement": "IC50", "setting": "[1]; pUC19 transfected UM-SCC6 cells", "result": 200, "unit": "µM"},
      {"measurement": "IC50", "setting": "[1]; untransfected UM-SCC6 cells", "result": "> 1000", "unit": "µM"}
    ]},
    {"smiles": "N.N.[Cl][Pt][Cl]", "note": "[Cis-Platinum, cis-diamminedichloroplatinum]", "values": [
      {"measurement": "IC50 of Cis-Platinum", "setting": "[1]; pUC19 transfected", "result": 1, "unit": "µg/mL"},
      {"measurement": "IC50 of Cis-Platinum", "setting": "[1]; untransfecte control", "result": 3, "unit": "µg/mL"},
      {"measurement": "IC50 of Cis-Platinum", "setting": "[2]; pUC19 transfected", "result": 0.3, "unit": "µg/mL"},
      {"measurement": "IC50 of Cis-Platinum", "setting": "[2]; untransfecte control", "result": 3, "unit": "µg/mL"},
      {"measurement": "untransfected cells at 96 hours after drug treatment", "setting": "[2]", "result": "recovered and grown up"}
    ]},
    {"smiles": "CC(=O)O[C@H]1C(=O)[C@@]2(C)[C@H]([C@H](OC(=O)c3ccccc3)[C@]3(O)C[C@H](OC(=O)[C@H](O)[C@@H](NC(=O)c4ccccc4)c4ccccc4)C(C)=C1C3(C)C)[C@]1(OC(C)=O)CO[C@@H]1C[C@@H]2O", "note": "[Paclitaxel]", "values": [
      {"measurement": "IC50", "setting": "[2]; Homo sapiens, HT-1080, pUC19 transfected HT1080 cells, read-out: IC50 of texal", "result": 0.02, "unit": "µM"},
      {"measurement": "response to texal", "setting": "[2]; untransfected HT1080 cells", "result": "did not show any response upto 100 nM"},
      {"measurement": "untransfected cells at 96 hours after drug treatment", "setting": "[2]", "result": "recovered and grown up"},
      {"measurement": "IC50", "setting": "[3]; Homo sapiens, HT-1080, Contrl (untransfected)", "result": 0.06, "unit": "µM"},
      {"measurement": "cell survival / cell death", "setting": "[3]; Taxel 3-100 nM", "result": "dose dependent cell death"}
    ]},
    {"smiles": "O=[N+]([O-])c1ccc(-[n+]2nc(-c3ccc(S(=O)(=O)[O-])cc3S(=O)(=O)[O-])nn2-c2ccc(I)cc2)c([N+](=O)[O-])c1.[Na+]", "note": "[WST-3, 2-(4-Iodophenyl)-3-(2,4-dinitrophenyl)-5-(2,4-disulfophenyl)-2H-tetrazolium, sodium salt]", "values": [
      {"measurement": "cell death, single agent", "setting": "[4]", "result": "no or limited effect of cell death"},
      {"measurement": "cell death, single agent", "setting": "[5]; apigenin or WST-3 alone", "result": "dose dependent but limited cell death"},
      {"measurement": "IC50", "setting": "[5]; [7]", "result": 20, "unit": "µM"},
      {"measurement": "WST-3 IC50 in SK-Mel-5 compared with HEKa cells", "setting": "[5]; combination with 30 μM apigenin", "result": "one fold less than that from HEKa cells"},
      {"measurement": "cell death, single agent", "setting": "[6]; apigenin or WST-3 alone", "result": "limited cell death"},
      {"measurement": "IC50", "setting": "[6]; [7]", "result": 40, "unit": "µM"}
    ]}
  ]
}
